Measurements from the Deep4Chem optical property database.

Assay: photoluminescence quantum yield (fraction); solvent given as SMILES

With `COc1ccc(C2=CC3=C(c4c(C)cc(C)cc4C)c4cc(-c5ccc(OC)cc5)c(-c5ccc(OC)cc5)n4[B-](F)(F)[N+]3=C2c2ccc(OC)cc2)cc1` the photoluminescence quantum yield (in C1CCCCC1) was 0.64, the photoluminescence quantum yield (in C1CCOC1) was 0.42 and the photoluminescence quantum yield (in CC#N) was 0.24. It also gave a photoluminescence quantum yield (in Cc1ccccc1) of 0.51 and a photoluminescence quantum yield (in ClCCl) of 0.42.

With `COC(=O)c1cc(=O)n(C)c2cc(-c3cccc(N(C)C)c3)sc12` the photoluminescence quantum yield (in CC#N) was 0.03 and the photoluminescence quantum yield (in ClCCl) was 0.01.

For `CCN(CC)c1ccc2c(c1)oc(=O)c1c(C)nc3c(c(C)nn3-c3ccccc3)c12`, the photoluminescence quantum yield (in C1CCCCC1) was 0.852, the photoluminescence quantum yield (in CCOC(C)=O) was 0.733 and the photoluminescence quantum yield (in CN(C)C=O) was 0.562. It also gave a photoluminescence quantum yield (in CO) of 0.428 and a photoluminescence quantum yield (in ClCCl) of 0.827.

`Cc1ccc(-c2cc(/C=C/c3ccc(N(c4ccccc4)c4ccccc4)cc3)c(-c3ccc(C)cc3)cc2/C=C/c2ccc(N(c3ccccc3)c3ccccc3)cc2)cc1` gave a photoluminescence quantum yield (in ClCCl) of 0.74.

In the case of `C[Si](C)(C)C#Cc1ccc2c3cccc4cccc(c5cccc1c52)c43`, the photoluminescence quantum yield (in C1CCCCC1) is reported as 0.88.

For `CC1=[N+]2C(=C(c3ccccc3)c3ccc(/C=C/c4ccc(C(=C(c5ccccc5)c5ccccc5)c5ccccc5)cc4)n3[B-]2(F)F)C=C1`, the photoluminescence quantum yield (in C1CCOC1) was 0.746.

Work on `C(=C\c1ccc(N(c2ccccc2)c2ccccc2)cc1)/c1ccc(-c2nc(-c3ccc(/C=C/c4ccc(N(c5ccccc5)c5ccccc5)cc4)cc3)nc(-c3ccc(/C=C/c4ccc(N(c5ccccc5)c5ccccc5)cc4)cc3)n2)cc1` yielded a photoluminescence quantum yield (in ClC(Cl)Cl) of 0.27.

`COc1ccc(C2=[N+]3C(=Nc4c(-c5ccccc5-c5ccc(C(C)(C)C)cc5)cc(-c5ccc(OC)cc5)n4[B-]3(F)F)c3c2c2cc(C(C)(C)C)ccc2c2ccccc32)cc1` showed a photoluminescence quantum yield (in Cc1ccccc1) of 0.38.

With `Cc1cc(C)c([B-]2(c3c(C)cc(C)cc3C)[O+]=P(c3ccccc3)(c3ccccc3)c3cc(-c4ccccc4)sc3-c3sc(-c4ccccc4)cc32)c(C)c1` the photoluminescence quantum yield (in C1CCOC1) was 0.58.

Work on `CC(C)(C)c1ccc(N(c2ccc(S(=O)(=O)c3ccc(S(=O)(=O)c4ccc(N(c5ccc(C(C)(C)C)cc5)c5ccccc5C(C)(C)C)cc4)cc3)cc2)c2ccccc2C(C)(C)C)cc1` yielded a photoluminescence quantum yield (in Cc1ccccc1) of 0.8.

With `CC1=C(C#Cc2ccc(B(c3c(C)cc(C)cc3C)c3c(C)cc(C)cc3C)cc2)C(C)=[N+]2C1=C(c1ccccc1)c1c(C)c(C#Cc3ccc(B(c4c(C)cc(C)cc4C)c4c(C)cc(C)cc4C)cc3)c(C)n1[B-]2(F)F` the photoluminescence quantum yield (in ClCCl) was 0.65.

Work on `Clc1ccc(/C=C/c2cnc3ccccc3n2)cc1` yielded a photoluminescence quantum yield (in ClCCl) of 0.01.

Work on `O=c1cc2cc(O)c3cccc4ccc(o1)c2c43` yielded a photoluminescence quantum yield (in CC1CCCO1) of 0.35.

Compound `C[Si](C)(C)[Si](C)(C)c1c2ccccc2cc2ccccc12` has a photoluminescence quantum yield (in C1CCCCC1) of 0.92 and a photoluminescence quantum yield (in CC#N) of 0.65.

`N#Cc1ccc2nc3c(=O)[nH]c(=O)[nH]c3nc2c1` showed a photoluminescence quantum yield (in ClCCCl) of 0.016.

Compound `CC(C)[Si]1(C(C)C)c2ccccc2-c2ccc(N(C)C)cc21` has a photoluminescence quantum yield (in C1CCCCC1) of 0.26, a photoluminescence quantum yield (in CC#N) of 0.28 and a photoluminescence quantum yield (in CCO) of 0.11. It also gave a photoluminescence quantum yield (in CCOCC) of 0.22, a photoluminescence quantum yield (in CS(C)=O) of 0.12 and a photoluminescence quantum yield (in ClCCl) of 0.13. For the same compound, the photoluminescence quantum yield (in c1ccccc1) was 0.22.

Compound `N#Cc1nc(N(Cc2ccc(I)cc2)Cc2ccc(I)cc2)c(C#N)nc1N(Cc1ccc(I)cc1)Cc1ccc(I)cc1` has a photoluminescence quantum yield (in ClC(Cl)Cl) of 0.79.

`CCCCN1C(=S)c2cccc3cccc(c23)C1=S` showed a photoluminescence quantum yield (in Cc1ccccc1) of 0.01.

In the case of `Cn1c(=O)cc(C(=O)c2ccccc2)c2sc(-c3ccc(OC(F)(F)F)cc3)cc21`, the photoluminescence quantum yield (in CC#N) is reported as 0.65 and the photoluminescence quantum yield (in ClCCl) is reported as 0.85.

Work on `NCCCCCCCCCCCCN1C(=O)c2ccc3c4ccc5c6c(ccc(c7ccc(c2c37)C1=O)c64)C(=O)N(CCCCCCCCCCCCN)C5=O` yielded a photoluminescence quantum yield (in CN(C)C=O) of 0.83.

With `C/C=C/C=C/C1=NC(=C\c2ccc([O-])cc2)/C(=O)N1C` the photoluminescence quantum yield (in O) was 0.0008.

With `COc1ccc(-c2cc(-c3ccc(C(F)(F)F)cc3)nn2C)cc1` the photoluminescence quantum yield (in ClCCl) was 0.2.

With `CCCCC1=Cc2c3ccc4cccc5ccc(c6cc(-c7ccc(N(c8ccccc8)c8ccccc8)cc7)n(c26)P1(=O)c1ccccc1)c3c45` (stereo not drawn) the photoluminescence quantum yield (in C1CCCCC1) was 0.56, the photoluminescence quantum yield (in C1CCOC1) was 0.49 and the photoluminescence quantum yield (in C1COCCO1) was 0.61. The photoluminescence quantum yield (in CC#N) was 0.39, the photoluminescence quantum yield (in CC(C)=O) was 0.52 and the photoluminescence quantum yield (in CO) was 0.29. For the same compound, the photoluminescence quantum yield (in Cc1ccccc1) was 0.61, the photoluminescence quantum yield (in ClC(Cl)Cl) was 0.58 and the photoluminescence quantum yield (in ClCCl) was 0.62.

Work on `Cc1ccc(-n2c(C)ccc2C)cc1` yielded a photoluminescence quantum yield (in CC#N) of 0.013 and a photoluminescence quantum yield (in CCCCCC) of 0.006.

`N[C@@H](Cn1nnc2cc(-c3ccc(N4CCOCC4)cc3)ccc21)C(=O)O` gave a photoluminescence quantum yield (in CO) of 0.004.

`c1ccc(-n2c3ccccc3c3ccccc32)cc1` gave a photoluminescence quantum yield (in CCO) of 0.46.

`Cc1cccc(-c2[nH]c(=O)n3c2-c2ccccc2C3=O)c1O` showed a photoluminescence quantum yield (in CC#N) of 0.52, a photoluminescence quantum yield (in CO) of 0.15 and a photoluminescence quantum yield (in ClCCl) of 0.6.

Work on `O=Cc1ccc(C2=Cc3ccccc3P2(=O)c2ccccc2)cc1` (stereo not drawn) yielded a photoluminescence quantum yield (in ClCCl) of 0.056.

In the case of `CCCCCCCc1ccc(C2=[N+]3C(=C4c5cc(OCC(CC)CC)c(-c6ccc(CCCCCCC)o6)n5[B-](F)(F)[n+]5nnn(c54)[B-]3(F)F)C=C2OCC(CC)CC)o1`, the photoluminescence quantum yield (in C1CCOC1) is reported as 0.04 and the photoluminescence quantum yield (in ClCCl) is reported as 0.02.

For `CSc1ccc(/C=C/c2ccncn2)cc1`, the photoluminescence quantum yield (in ClCCl) was 0.01.

`COc1ccc(C#Cc2ccc(C#N)cc2)cc1` gave a photoluminescence quantum yield (in C1COCCO1) of 0.1, a photoluminescence quantum yield (in CC#N) of 0.09 and a photoluminescence quantum yield (in CCCCCC) of 0.15. The photoluminescence quantum yield (in CCCCCCC) was 0.17, the photoluminescence quantum yield (in CCCO) was 0.13 and the photoluminescence quantum yield (in CCOC(C)=O) was 0.08. For the same compound, the photoluminescence quantum yield (in CS(C)=O) was 0.15, the photoluminescence quantum yield (in ClC(Cl)Cl) was 0.13 and the photoluminescence quantum yield (in ClCCl) was 0.12.

`Cc1ccc(/C=C/c2nc(-c3ccc([N+](=O)[O-])cc3)[nH]c2/C=C/c2ccc(C)cc2)cc1` showed a photoluminescence quantum yield (in ClCCl) of 0.

Work on `Cc1ccc(C2C(C#N)=C(N)n3c(=O)c4ccccc4c(=O)n32)cc1` (stereo not drawn) yielded a photoluminescence quantum yield (in CS(C)=O) of 0.045.

`Cc1c(C)n2c(COC(=O)CNC(=O)OC(C)(C)C)c(C)c(=O)n2c1=O` showed a photoluminescence quantum yield (in CCO) of 0.63.

For `O=C1c2ccccc2C(=O)c2cc(-c3ccc(N(c4ccccc4)c4ccccc4)cc3)ccc21`, the photoluminescence quantum yield (in CCCCCC) was 0.392, the photoluminescence quantum yield (in CCOC(C)=O) was 0.0001 and the photoluminescence quantum yield (in CCOCC) was 0.0129. The photoluminescence quantum yield (in Cc1ccccc1) was 0.092, the photoluminescence quantum yield (in ClC(Cl)(Cl)Cl) was 0.326 and the photoluminescence quantum yield (in ClCCl) was 0.

`Cc1cccn2c1cc1c3ccccc3nc(-c3ccc(Cl)o3)c12` showed a photoluminescence quantum yield (in CS(C)=O) of 0.31.

For `CCc1c(C)c2n(c1C)[B-](F)(F)[N+]1=C(NCc3ccc(OC)cc3)C(SC#N)=CC1=C2C`, the photoluminescence quantum yield (in CC#N) was 0.83, the photoluminescence quantum yield (in CCCCCC) was 0.91 and the photoluminescence quantum yield (in CCOC(C)=O) was 0.9. The photoluminescence quantum yield (in CO) was 0.85 and the photoluminescence quantum yield (in ClCCl) was 0.93.

`CC1(C)c2ccccc2N(c2ccc(-c3ccc4c(c3)C(=O)c3ccc(-c5ccc(N6c7ccccc7C(C)(C)c7ccccc76)cc5)cc3C4=O)cc2)c2ccccc21` showed a photoluminescence quantum yield (in Cc1ccccc1) of 0.17 and a photoluminescence quantum yield (in c1ccc2c(c1)c1ccccc1n2-c1ccc(-c2ccc(-n3c4ccccc4c4ccccc43)cc2)cc1) of 0.5.

Work on `Cc1cccc(-c2nc3sc4ccccc4c3s2)c1` yielded a photoluminescence quantum yield (in CS(C)=O) of 0.84.

For `CCCCCCN(CCCCCC)c1ccc(C#Cc2ccc(N(CCCCCC)CCCCCC)cc2)cc1`, the photoluminescence quantum yield (in CO) was 0.0001.

`Cc1ccc2nc3cc4c5c(cccc5c3nc2c1)C(c1ccccc1)=C(c1ccccc1)O4` showed a photoluminescence quantum yield (in ClCCl) of 0.37.

Compound `CCOC(=O)c1cc(C(=O)OCC)c2cc(C)ccc2n1` has a photoluminescence quantum yield (in CCO) of 0.022.

In the case of `CC(C)(C)c1ccc2c(c1)c1cc(C(C)(C)C)ccc1n2-c1ccc(-c2nc(-c3ccc(-n4c5ccc(C(C)(C)C)cc5c5cc(C(C)(C)C)ccc54)cc3)nc(-c3ccc(P(=O)(c4ccccc4)c4ccccc4)cc3)n2)cc1`, the photoluminescence quantum yield (in O=P(c1ccccc1)(c1ccccc1)c1ccccc1Oc1ccccc1P(=O)(c1ccccc1)c1ccccc1) is reported as 0.74.

`CCCCCCOc1ccc(-c2cnc(-c3nnc(-c4ccc(OCCCCCC)cc4)o3)o2)cc1` showed a photoluminescence quantum yield (in C1CCCCC1) of 0.82, a photoluminescence quantum yield (in C1CCOC1) of 0.57 and a photoluminescence quantum yield (in CC#N) of 0.75. The photoluminescence quantum yield (in CCO) was 0.8, the photoluminescence quantum yield (in CO) was 0.65 and the photoluminescence quantum yield (in ClC(Cl)Cl) was 0.49.

For `CCC1=C(C)c2cc3c(OC)cc(OC)cc3c(=O)n2C1=O`, the photoluminescence quantum yield (in CC#N) was 0.54, the photoluminescence quantum yield (in CO) was 0.44 and the photoluminescence quantum yield (in CS(C)=O) was 0.6. It also gave a photoluminescence quantum yield (in ClC(Cl)Cl) of 0.6.

Compound `C(=C\c1ccc(/C=C/c2ccc(N(c3ccccc3)c3ccccc3)cc2)c2nsnc12)/c1ccc(N(c2ccccc2)c2ccccc2)cc1` has a photoluminescence quantum yield (in C1CCOC1) of 0.228, a photoluminescence quantum yield (in CCOC(C)=O) of 0.275 and a photoluminescence quantum yield (in CN(C)C=O) of 0.061. For the same compound, the photoluminescence quantum yield (in Cc1ccccc1) was 0.345, the photoluminescence quantum yield (in ClC(Cl)Cl) was 0.148 and the photoluminescence quantum yield (in ClCCl) was 0.137.

For `CCN(CC)c1ccc2cc(-c3csc(NC(C)=O)c3C#N)c(=O)oc2c1`, the photoluminescence quantum yield (in C1CCOC1) was 0.34, the photoluminescence quantum yield (in CS(C)=O) was 0.07 and the photoluminescence quantum yield (in ClCCl) was 0.33.

`c1ccc(-c2nc3c(ccc4[nH]ccc43)o2)cc1` gave a photoluminescence quantum yield (in C1CCCCC1) of 0.6, a photoluminescence quantum yield (in C1COCCO1) of 0.78 and a photoluminescence quantum yield (in CC#N) of 0.72. The photoluminescence quantum yield (in CO) was 0.55, the photoluminescence quantum yield (in Cc1ccccc1) was 0.69 and the photoluminescence quantum yield (in O) was 0.54.

Compound `Oc1ccc2ccccc2c1/C=N/c1ccccc1/N=C/c1c(O)ccc2ccccc12` has a photoluminescence quantum yield (in CC#N) of 0.3.

Compound `COc1cccc(/C=C/c2ccccc2)c1` has a photoluminescence quantum yield (in C1CCCCC1) of 0.18, a photoluminescence quantum yield (in CC#N) of 0.16 and a photoluminescence quantum yield (in CC(C)O) of 0.15. It also gave a photoluminescence quantum yield (in CCCCOCCCC) of 0.2, a photoluminescence quantum yield (in CCOC(C)=O) of 0.18 and a photoluminescence quantum yield (in CCOCC) of 0.18.

For `Cc1ccc(-n2c3ccccc3c3cc(C=C(C#N)C#N)ccc32)cc1`, the photoluminescence quantum yield (in C1CCOC1) was 0.12, the photoluminescence quantum yield (in CC#N) was 0.04 and the photoluminescence quantum yield (in CC(C)=O) was 0.05. The photoluminescence quantum yield (in CCOC(C)=O) was 0.09, the photoluminescence quantum yield (in CO) was 0.03 and the photoluminescence quantum yield (in CS(C)=O) was 0.04. For the same compound, the photoluminescence quantum yield (in Cc1ccccc1) was 0.11 and the photoluminescence quantum yield (in ClC(Cl)Cl) was 0.08.

`CCCC1(CCC)c2cc(C#N)ccc2-c2ccc(C#N)cc21` showed a photoluminescence quantum yield (in C1CCCCC1) of 0.32.

`c1ccc([B-]23Oc4ccccc4-c4c5[n+]6c(c([n+]42)-c2ccccc2O3)-c2ccccc2O[B-]6(c2ccccc2)Oc2ccccc2-5)cc1` showed a photoluminescence quantum yield (in ClCCl) of 0.2.

For `Cc1c(C)n2c(COC(=O)c3ccccc3O)c(C)c(=O)n2c1=O`, the photoluminescence quantum yield (in CCO) was 0.641.
